Measured values as given in patent US8536202B2, “Triazole-substituted anthranilamides as pesticides” (Bayer Cropscience AG, priority 2010, dated 2013).
Read-outs that look alike come from different tables or passages of the source.

Columns and labels:
[1] = tested on: green peach aphid (Myzus persicae); experiment: Myzus test (MYZUPE spray treatment), Use Example 4; format: in vivo; details: 144 h; for pest or weed control at 100 g/ha: read-out: activity in %
Summary of the method: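 Compound was formulated in acetone/dimethylformamide with alkylaryl polyglycol ether emulsifier and diluted in emulsifier-containing water. It was sprayed onto Chinese cabbage leaf discs infested with all stages of Myzus persicae. Mortality (%) was scored after 6 days, where 100% means all aphids killed.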

[2] = tested on: larvae of the mustard beetle (Phaedon cochleariae); experiment: Phaedon test (PHAECO spray treatment); format: in vivo; details: 168 h; for pest or weed control at 100 g/ha: read-out: activity in %
Summary of the method: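 Mortality of mustard beetle larvae, expressed as percent killed (100% all, 0% none), assessed 7 days after spraying. Spray liquor made from compound in acetone plus dimethylformamide with alkylaryl polyglycol ether, diluted in emulsifier-containing water to the desired concentration.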

[3] = tested on: caterpillars of the armyworm (Spodoptera frugiperda); experiment: Spodoptera frugiperda test (SPODFR spray treatment); format: in vivo; details: 168 h; for pest or weed control at 100 g/ha: read-out: activity in %
Summary of the method: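 Percent caterpillar mortality read 7 days after infestation (0% none killed, 100% all killed). Treatment was a spray of the acetone/DMF/emulsifier formulation, water-diluted to test concentration, onto Zea mays leaf discs, allowed to dry before larvae were added.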

[4] = log P determination by HPLC on reversed-phase columns (EEC Directive 79/831 Annex V.A8); format: physicochemical; details: pH 2.7
Summary of the method: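 Calibration used unbranched alkan-2-ones of 3 to 16 carbons with known log P, values interpolated linearly from retention times between neighbouring standards. Acidic-range LC-MS run at pH 2.7, eluents aqueous and acetonitrile formic acid 0.1%, linear gradient 10% to 95% acetonitrile.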

[5] = reversed-phase C18 HPLC column, HPLC on reversed-phase columns (C 18), EEC Directive 79/831 Annex V.A8, read-out: logP
[6] = HPLC on reversed-phase columns (C 18), EEC Directive 79/831 Annex V.A8, read-out: logP

| Structure (SMILES) | pest or weed control at 100 g/ha ([1]; 100 g/ha, after 6 days) | pest or weed control at 100 g/ha ([2]; 100 g/ha, after 7 days) | pest or weed control at 100 g/ha ([3]; 100 g/ha, after 7 days) | chromatographic logP [4] | also measured |
| --- | --- | --- | --- | --- | --- |
| CSC[C@H](C)NC(=O)c1cc(I)cc(C)c1NC(=O)c1cc(Cn2cc(C(F)(C(F)(F)F)C(F)(F)F)nn2)nn1-c1ncccc1Cl [Example 238] | 100% | 100% | 100% | – | chromatographic logP [4, 5]: 4.26 |
| CNC(=O)c1cc(I)cc(C)c1NC(=O)c1cc(Cn2cc(C(F)(F)C(F)(F)F)nn2)nn1-c1ncccc1Cl [Example 308] | 100% | 100% | 100% | 3.23 | – |
| CSC[C@H](C)NC(=O)c1cc(Cl)cc(C)c1NC(=O)c1cc(Cn2nc(C(F)(F)F)c(C(F)(F)F)n2)nn1-c1ncccc1Cl [Example 408] | 90% | 100% | 100% | 4.4 | – |
| CSC[C@H](C)NC(=O)c1cc(C#N)cc(C)c1NC(=O)c1cc(Cn2nc(C(F)(F)F)c(C(F)(F)F)n2)nn1-c1ncccc1Cl [Example 400] | – | 100% | 100% | – | pest or weed control at 500 g/ha ([1]; 500 g/ha, after 6 days): 100%; chromatographic logP [4, 5]: 4.05 |
| Cc1cc(C#N)cc(C(=O)NC(C)(C)C)c1NC(=O)c1cc(Cn2cc(C(F)(F)F)nn2)nn1-c1ncccc1Cl [Example 182] | 100% | 100% | 100% | 2.97 | – |
| CCNC(=O)c1cc(C#N)cc(C)c1NC(=O)c1cc(Cn2ncc(C(F)(F)F)n2)nn1-c1ncccc1Cl [Example 127] | 90% | 100% | 100% | 2.88 | – |
| CSC[C@H](C)NC(=O)c1cc(I)cc(C)c1NC(=O)c1cc(Cn2ncc(C(F)(F)F)n2)nn1-c1ncccc1Cl [Example 166] | 100% | 100% | 100% | 3.98 | – |
| Cc1cc(C#N)cc(C(=O)NC(C)(C)C)c1NC(=O)c1cc(Cn2nc(C(F)(F)F)c(C(F)(F)F)n2)nn1-c1ncccc1Cl [Example 412] | 80% | 100% | 100% | 4.16 | – |
| Cc1cc(Cl)cc(C(=O)NC(C)C)c1NC(=O)c1cc(Cn2cc(C(F)(F)C(F)(F)F)nn2)nn1-c1ncccc1Cl [Example 303] | 100% | 100% | 100% | 3.5 | – |
| Cc1cc(Cl)cc(C(=O)NC2CC2)c1NC(=O)c1cc(Cn2ncc(C(F)(F)F)n2)nn1-c1ncccc1Cl [Example 137] | 100% | 100% | 100% | 3.18 | – |
| CNC(=O)c1cc(Cl)cc(C)c1NC(=O)c1cc(Cn2cc(C(F)(F)C(F)(F)C(F)(F)F)nn2)nn1-c1ncccc1Cl [Example 328] | – | – | – | – | pest or weed control at 100 g/ha [1]: 100%; pest or weed control at 100 g/ha [2]: 100%; pest or weed control at 100 g/ha [3]: 100%; chromatographic logP [4, 6]: 3.38 |
| CSC[C@H](C)NC(=O)c1cc(Cl)cc(C)c1NC(=O)c1cc(Cn2cc(C(F)(F)F)nn2)nn1-c1ncccc1Cl [Example 194] | 100% | 100% | 100% | 3.35 | – |
| Cc1cc(C#N)cc(C(=O)NC(C)(C)C)c1NC(=O)c1cc(Cn2cc(C(F)(C(F)(F)F)C(F)(F)F)nn2)nn1-c1ncccc1Cl [Example 220] | 100% | 100% | – | – | pest or weed control at 20 g/ha ([3]; 20 g/ha, after 7 days): 100%; chromatographic logP [4, 5]: 3.75 |
| Cc1cc(Cl)cc(C(N)=O)c1NC(=O)c1cc(Cn2ncc(C(F)(F)C(F)(F)F)n2)nn1-c1ncccc1Cl [Example 359] | 100% | 100% | 100% | 3.12 | – |
| CSC[C@H](C)NC(=O)c1cc(Cl)cc(C)c1NC(=O)c1cc(Cn2cc(C(F)(F)C(F)(F)C(F)(F)F)nn2)nn1-c1ncccc1Cl [Example 324] | – | – | – | – | pest or weed control at 100 g/ha [1]: 100%; pest or weed control at 100 g/ha [2]: 100%; pest or weed control at 100 g/ha [3]: 100%; chromatographic logP [4, 6]: 3.99 |
| CSC[C@H](C)NC(=O)c1cc(Cl)cc(C)c1NC(=O)c1cc(Cn2ncc(C(F)(F)C(F)(F)C(F)(F)F)n2)nn1-c1ncccc1Cl [Example 383] | – | – | – | – | pest or weed control at 100 g/ha [1]: 80%; pest or weed control at 100 g/ha [2]: 100%; pest or weed control at 100 g/ha [3]: 100%; chromatographic logP [4, 6]: 4.41 |
| CNC(=O)c1cc(Cl)cc(Cl)c1NC(=O)c1cc(Cn2cc(C(F)(F)F)nn2)nn1-c1ncccc1Cl [Example 197] | 90% | 100% | 100% | 2.59 | – |
| Cc1cc(Cl)cc(C(=O)NC(C)(C)C)c1NC(=O)c1cc(Cn2nccn2)nn1-c1ncccc1Cl [Example 121] | 100% | 100% | 100% | 2.87 | – |
| Cc1cc(Cl)cc(C(=O)NC(C)(C)C)c1NC(=O)c1cc(Cn2cc(C(F)(C(F)(F)F)C(F)(F)F)nn2)nn1-c1ncccc1Cl [Example 228] | 80% | 100% | 100% | – | chromatographic logP [4, 5]: 4.19 |
| Cc1cc(I)cc(C(N)=O)c1NC(=O)c1cc(Cn2nc(C(F)(F)F)c(C(F)(F)F)n2)nn1-c1ncccc1Cl [Example 402] | 80% | 100% | 100% | 3.67 | – |
| CCNC(=O)c1cc(C#N)cc(C)c1NC(=O)c1cc(Cn2ncc(C(F)(F)C(F)(F)F)n2)nn1-c1ncccc1Cl [Example 363] | 100% | 100% | 100% | 3.26 | – |
| CNC(=O)c1cc(C#N)cc(C)c1NC(=O)c1cc(Cn2cc(C(F)(C(F)(F)F)C(F)(F)F)nn2)nn1-c1ncccc1Cl [Example 217] | 100% | 100% | 100% | 3.03 | – |
| Cc1cc(Cl)cc(C(=O)NC(C)C2CC2)c1NC(=O)c1cc(Cn2cc(C(F)(F)C(F)(F)C(F)(F)F)nn2)nn1-c1ncccc1Cl (stereo not drawn) [Example 327] | – | – | – | – | pest or weed control at 100 g/ha [1]: 100%; pest or weed control at 100 g/ha [2]: 100%; pest or weed control at 100 g/ha [3]: 100%; chromatographic logP [4, 6]: 4.15 |
| CSC[C@H](C)NC(=O)c1cc(Cl)cc(C)c1NC(=O)c1cc(Cn2ncc(C(F)(F)F)n2)nn1-c1ncccc1Cl [Example 144] | 100% | 100% | 100% | 3.74 | – |
| CNC(=O)c1cc(C#N)cc(C)c1NC(=O)c1cc(Cn2cc(C(F)(F)C(F)(F)F)nn2)nn1-c1ncccc1Cl [Example 317] | 100% | 100% | 100% | 2.68 | – |
| CNC(=O)c1cc(C#N)cc(C)c1NC(=O)c1cc(Cn2ncc(C(F)(F)F)n2)nn1-c1ncccc1Br [Example 9] | 100% | 100% | 100% | – | chromatographic logP [4, 5]: 2.33 |
| CCNC(=O)c1cc(C#N)cc(C)c1NC(=O)c1cc(Cn2cc(C(F)(F)F)nn2)nn1-c1ncccc1Cl [Example 180] | – | – | 100% | 2.49 | pest or weed control at 20 g/ha ([1]; 20 g/ha, after 6 days): 100%; pest or weed control at 500 g/ha ([2]; 500 g/ha, after 7 days): 100% |
